# Measurements taken from US8906897B2, “Antimicrobial agents based on hemin derivatives” (Obschestvo S Ogranichennoi Otvetstvennostiyu …, priority 2009, dated 2014).
# Entries after “also recorded” stand apart in the source; their conditions may differ.
# Columns and labels:
# [1] = system: Micrococcus luteus BKM Ac-2230; assay: Antibacterial activity (MIC/MBC), serial dilutions in liquid MH medium; type: cell-based; details: for MIC: 20 h, MH medium
# Procedure: (§1) The antibacterial activity of compounds was determined against Bacillus subtilis BKM B-501, Staphylococcus aureus 209P, Enterococcus faecalis BKM B-871, and Micrococcus luteus BKM Ac-2230 strains (acquired from the All-Russia Collection of Microorganisms at the Institute for Biochemistry and Physiology of Microorganisms, Russian Academy of Sciences). The main parameters characterizing the antibacterial activity are the minimal inhibitory concentration (MIC) and minimal bactericidal concentration (MBC). […] MBC is the least concentration that causes the death of all cells.
# (§2) MIC was quantified by inhibiting culture growth in a liquid medium with serial dilutions of compounds using a modified procedure [Amsterdam, D., “Susceptibility Testing of Antimicrobials in Liquid Media,” in Antibiotics in Laboratory Medicine, Ed. by Lorian, V., 4th ed., Baltimore: Williams and Wilkins, 1996, pp. 52-111].
# (§3) Bacteria were cultured and tests were carried out on an MH liquid medium (Mueller-Hinton medium: a dry extract of beef broth, 4 g/L; starch, 1.5 g/L; casein hydrolyzate, 17.5 g/L; Sigma-Fluka Catalog No. 70192) at 37° C., 100% humidity, and under stirring. Cultures (4th through 7th receeding post-thawing) in the exponential growth phase were used for tests.
# (§4) Therefore, a correction for absorption was applied in estimating the optical density of bacterial suspensions for each compound with account for its concentration in the well.
# (§5) The protocol for experimental antibacterial activity determination for tested compounds was as follows. A cryovial with the test strain culture (Bacillus subtilis BKIVI B-501, Staphylococcus aureus 209P, Enterococcus faecalis BKM B-871, or Micrococcus luteus BKIVI Ac-2230) in a medium with 7% DMSO stored in liquid nitrogen, was rapidly defrosted, and 1.5 mL of the fresh MH medium was inoculated with 100 μL of the cell suspension. Cells were grown for one day at 37° C. and stirred on an orbital shaker at 150 rpm. The morphologic features of the strain and the absence of contamination with foreign bacteria were verified by: (a) inoculation on an agarized (15 g/L agar) MH medium and observation of the shape and color of the grown colonies and (b) examination of characteristic morphologic features under a microscope (Mikmed-2, LOMO, Russia) equipped with a 40× objective lens. Further bacteria were cultured in 1 mL of the liquid MH medium at 37° C. under stirring. The cells were reseeded every day. Cell cultures were used in tests starting with 3rd reseeding and ending with 6th one.
# (§6) For testing, 5 μL of a bacterial suspension in the stationary growth phase was transferred to 1 mL of a sterile MH medium and incubated until the exponential growth phase was attained (3 to 5 h, 37° C., stirring at 150 rpm). To estimate the microorganisms concentration, the optical density (A) of the resulting bacterial culture was measured at a wavelength of 595 nm. The value of A=0.2 measured from a […] portion of the cell suspension in a 96-well plate, with a correction for the medium absorption applied, was set to correspond to 4×10^8 cells/mL for both strains used. Taking into account the cell concentration measurements, the suspension was diluted with the MH medium to a concentration of from 5×10^4 to 1×10^5 cells/mL and transferred to a sterile 96-well plate in an amount of 100 μL, per well. Then, the cells were added with tested compounds and twofold serial dilutions of these compounds in plate's wells were made.
# (§7) The controls used were: 100 μL of an additive-free bacterial culture (four wells); a bacterial culture added with 1% DMSO or water in the same volume as in the wells with the maximal concentration of the tested compounds (four wells); and 100 μL of the sterile MH medium without bacteria and without tested compounds for control of occasional contamination in the plate (four wells).
# [2] = system: Bacillus subtilis BKM B-501; assay: as above; type: cell-based; details: for MIC: 20 h, MH medium
# Procedure: as §1, §2, §3, §4, §5, §6, §7
# [3] = system: Staphylococcus aureus 209P; assay: as above; type: cell-based; details: for MIC: 20 h, MH medium
# Procedure: as §1, §2, §3, §4, §5, §6, §7
# [4] = system: Enterococcus faecalis BKM B-871; assay: as above; type: cell-based; details: for MIC: 20 h, MH medium
# Procedure: as §1, §2, §3, §4, §5, §6, §7
# [5] = Solubility of tested agents (water / DMSO); details: water or DMSO
# [6] = system: Cryptococcus neoformans No. 3465; assay: Antifungal activity, culture growth with pH indicator; type: cell-based; design: key: (−) No growth; the indicator is blue; (±) Weak growth; the indicator is yellow, but the precipitate of grown cells looks as a diffuse spot; (+) Strong growth; the indicator is yellow, and the cell precipitate looks as a compact spot
# Procedure: The subjects of action were Cryptococcus neoformans No. 3465 museum strain cells and Candida albicans No. 927 museum strain cells grown for one day on a glucose-peptone-yeast medium at 32° C. The reference compounds were the following antimycotics: pimafucin, amphotericin, and fluconazole.
# Experiments were carried out on round-bottomed 96-well plates (Lenmedpolimer) in two replicas. To the first column (0), added was 10 μL of the stock solution of a water-soluble agent with concentrations of 10^−2 to 10^−3 mol/L; to the second column, added was also the same 10 μL plus 10 μL of the solvent corresponding to the given compound, suspended, 10 μL was transferred to the next well, and so on to the 8th well of the row. Stock solutions of water-insoluble compounds of general formula (I) (compounds V, VIII, XII, XIII, XIV, and hemin) were prepared in DMSO and were diluted with DMSO and the medium. DMSO concentrations in the reaction mixture in a well were ≦5%.
# Then, to every well added was 190 μL of a Cr. neoformans cell culture suspension in a synthetic nutritional medium (so that the final cell concentration was approximately 10^3 CFU/mL), this medium containing Bromocresol Blue as a pH-indicator (pH: 5.5; indicator color: blue). As pH reduced to 4.5, the indicator in the culture changed its color to yellow, thereby indicating fungal cell growth. The synthetic medium comprised the following components: salts, amino acids, microelements, vitamins, an antibiotic, and glucose (30 components altogether) [Yarrow, D., “Methods for the Isolation, Maintenance and Identification of Yeasts,” in: The Yeasts. A Taxonomic Study, Ed. by Kurtsman, C. P, and Fell, M., Elsevier, 1998, pp. 77-100]. After being inoculated with a Cr. neoformans cell suspension, the plate was incubated at 32° C. for 1 h with stirring, then transferred to a stationary thermostat and incubated for two and five days at 27° C. After being inoculated with a C. albicans cell suspension, the plates were incubated for 1 h at 32° C. with stirring, then transferred to a stationary thermostat and incubated for one and four days at 27° C.
# [7] = dilution : 16 of 5.00 × 10^−5 M
# [8] = dilution : 32 of 5.00 × 10^−5 M
# [9] = dilution : 64 of 5.00 × 10^−5 M
# [10] = dilution : 128 of 5.00 × 10^−5 M
SMILES,MBC [1] [µM],MIC [1] [µM],MBC [2],MIC [2] [µM],MBC [3],MIC [3] [µM],MBC [4],MIC [4] [µM],solubility (in words) [5],Test culture growth at various dilutions of the agent on day 2 ([6]; dilution 0: 5.00 × 10^−5 M),Test culture growth at various dilutions of the agent on day 2 ([6]; dilution : 2 of 5.00 × 10^−5 M),Test culture growth at various dilutions of the agent on day 2 ([6]; dilution : 4 of 5.00 × 10^−5 M),Test culture growth at various dilutions of the agent on day 2 ([6]; dilution : 8 of 5.00 × 10^−5 M),"Test culture growth at various dilutions of the agent on day 2 [6, 7]","Test culture growth at various dilutions of the agent on day 2 [6, 8]","Test culture growth at various dilutions of the agent on day 2 [6, 9]","Test culture growth at various dilutions of the agent on day 2 [6, 10]"
"C=CC1=C(C)c2cc3[n-]c(cc4nc(cc5[n-]c(cc1n2)c(C)c5CCC(=O)NCCO)C(CCC(=O)NCCO)=C4C)c(C)c3C=C.[Cl-].[Fe+3] [Compound XIV, Protohemin IX 6,7-bis-N-(2-Hydroxyethyl)amide]",1.6,0.8,6.3 ± 1.6 µM,1.6 ± 0.4,3.2 µM,1.6,100 µM,25,DMSO-soluble; also recorded: water-insoluble,,,,,,,,
"C=CC1=C(C)c2cc3[n-]c(cc4nc(cc5[n-]c(cc1n2)c(C)c5CCC(=O)N[C@@H](CCC(=O)N[C@@H](CCCNC(=N)N)C(=O)OC)C(=O)N[C@@H](CCCNC(=N)N)C(=O)OC)C(CCC(=O)N[C@@H](CCC(=O)N[C@@H](CCCNC(=N)N)C(=O)OC)C(=O)N[C@@H](CCCNC(=N)N)C(=O)OC)=C4C)c(C)c3C=C.[Cl-].[Fe+3] [Compound XVIII, 6,7-bis[bis(N^α-L-Arginyl Methyl Ester)-L-Glutamyl]-Protohemin IX]",12.5,3.1,Not reached,,>50^2 μM,,>50^3 μM,12.5,water-soluble,−,−,−,−,+,+,+,+
"C=CC1=C(C)c2cc3[n-]c(cc4[n-]c(cc5nc(cc1n2)C(C)=C5C=C)c(C)c4CCC(=O)O)c(CCC(=O)O)c3C.[Cl-].[Fe+3] [Hem, hemin]",25,12.5,50 ± 13 µM,13 ± 4,200 µM,100,>1000 µM,1000,water-insoluble,±,±,±,±,±,±,+,+
C=CC1=C(C)c2cc3[n-]c(cc4nc(cc5[n-]c(cc1n2)c(C)c5CCC(=O)N[C@@H](CO)C(=O)OC)C(CCC(=O)N[C@@H](CO)C(=O)OC)=C4C)c(C)c3C=C.[Cl-].[Fe+3] [VIII],12.5,,9 ± 4 µM,6.3 ± 1.6,200 µM,,25 µM,12.5,DMSO-soluble; also recorded: water-insoluble,±,±,±,+,+,+,+,+
C=CC1=C(C)c2cc3[n-]c(cc4nc(cc5[n-]c(cc1n2)c(C)c5CCC(=O)N[C@@H](CCCNC(=N)N)C(=O)OC)C(CCC(=O)N[C@@H](CCCNC(=N)N)C(=O)OC)=C4C)c(C)c3C=C.[Cl-].[Fe+3] [VII],6.3,,3.1 ± 0.8 µM,,200 µM,,400 µM,50,water-soluble,−,±,+,+,+,+,+,+
